Consider one molecule from patent US10253085B2, “CD31 peptides for the treatment of thrombotic or autoimmune disorders” (INSERM (INSTITUT NATIONAL DE LA SANTE ET DE LA RECHERCHE …, priority 2008, dated 2019).

Residues, ends and D or L forms follow the SMILES beside them.

Assay [1] has as its target T1, peptide 551-574 coated on CM5 chips (Mus musculus, UniProt Q08481).
T1 construct: made in house; host or cells: chemical synthesis (no expression host)
Nature of the assay: Surface plasmon resonance (BIAcore) homophilic binding of peptide 551-574. As to conditions: homophilic interaction. On the procedure: Homophilic binding association and dissociation constants were calculated by surface plasmon resonance (BIAcore® 2000, GE). In brief, peptide 551-574 was coated at 3400 resonance units (RU) on CM5 chips according to the manufacturer's instructions. Soluble peptide 551-574 (12.5, 25, 50 and 100 μM in 200 μl of 10 mM HEPES pH 7.4, 150 mM NaCl, 0.005% Tween 20) was injected at 20 μl/min at 25° C., on the peptide-coated channel and on an uncoated channel. Dissociation was monitored for 300 seconds. Association (kon) and dissociation (koff) constants were calculated using the BlAevaluation® 3.0 Software (GE).

For assay [2], the system named is scramble peptide. Nature of the assay: Surface plasmon resonance (BIAcore), channel coated with the scramble peptide. It counts as binding. As to conditions: injection of soluble peptide.
For assay [3], the system named is spleen cells from CD31^−/− mice. Nature of the assay: Proliferation in response to TCR stimulation, CD31-/- spleen cells. It counts as cell-based, mouse. On the procedure:
CD8^+ T cell-mediated cytolytic activity against allogeneic mouse aortic smooth muscle cells and measurement of macrophage gelatinase (MMP-2/9) activity were performed as previously described for human cells in Caligiuri et al. (2006 Arterioscler Thromb Vasc Biol 26:618-623) using kits and reagents from Invitrogen. Briefly, primary cultures of FVB/N mouse aorta smooth muscle cells were labelled with the lipophylic tracer DIO (green) and co-cultured for 3 hours with CD8+ T cell-enriched spleen cells from C57Bl/6 mice (n=3 scramble peptide and n=3 peptide 551-574, 50 μM). Cytolysis was evaluated by intracellular accumulation of propidium iodide (PI). Cells were analysed by flow cytometry and the % of cytolysis was calculated by expressing the number of dead (PI+) cells among the target (DIO+) cells. Intracellular MMP-2/9 (gelatinase) activity was measured by flow cytometry in 7-day bone-marrow derived macrophages from C57Bl/6 mice (n=3 scramble peptide and n=3 peptide 551-574, 50 μM) three hours after the incorporation of OregonGreen® gelatine (MFI). T-cell proliferation was performed using either human peripheral blood mononuclear cells of spleen cells from C57Bl/6 (CD31^+/+) and CD31^−/− mice (Charles River France) as previously described (Caligiuri et al. 2005 Arterioscler Thromb Vasc Biol 25:1659-1664). Briefly, cells were plated in triplicates at 0.2×10^6 cells/well in a U bottom 96-well plate in complete medium (RPMI 1640, 1% pyruvate, 1% glutamine, 1% penicillin-streptomicyne-fungizone, 10% decomplemented fetal calf serum, all from Invitrogen) containing 1 μg/ml anti-mouse CD3/CD28 or 5 μg/ml anti-human CD3 antibodies (BD) as appropriate. CD31 (551-574) and scramble peptide at 25, 50 and 100 μM final concentration were deposited in the wells just before cell plating. Plated cells were cultured for 72 hours in 5% CO2 at 37° C. (^3H) thymidine (0.5 μCi/well) was added for the last 16 hours and proliferation evaluated using a Tomtec harvester and analysis on a Wallac micro beta counter. Data are expressed as mean±SEM of cpm in triplicates.

Assay [4] has as its system allogeneic mouse aortic smooth muscle cells. The experiment in a line: CD8+ T cell-mediated cytolytic activity against allogeneic smooth muscle cells. As to conditions: peptide 50 μM, 3 hours co-culture. It counts as cell-based. How it is done: (§1) CD8^+ T cell-mediated cytolytic activity against allogeneic mouse aortic smooth muscle cells and measurement of macrophage gelatinase (MMP-2/9) activity were performed as previously described for human cells in Caligiuri et al. (2006 Arterioscler Thromb Vasc Biol 26:618-623) using kits and reagents from Invitrogen. Briefly, primary cultures of FVB/N mouse aorta smooth muscle cells were labelled with the lipophylic tracer DIO (green) and co-cultured for 3 hours with CD8+ T cell-enriched spleen cells from C57Bl/6 mice (n=3 scramble peptide and n=3 peptide 551-574, 50 μM). Cytolysis was evaluated by intracellular accumulation of propidium iodide (PI). Cells were analysed by flow cytometry and the % of cytolysis was calculated by expressing the number of dead (PI+) cells among the target (DIO+) cells. Intracellular MMP-2/9 (gelatinase) activity was measured by flow cytometry in 7-day bone-marrow derived macrophages from C57Bl/6 mice (n=3 scramble peptide and n=3 peptide 551-574, 50 μM) three hours after the incorporation of OregonGreen® gelatine (MFI). […] (^3H) thymidine (0.5 μCi/well) was added for the last 16 hours and proliferation evaluated using a Tomtec harvester and analysis on a Wallac micro beta counter. Data are expressed as mean±SEM of cpm in triplicates.

Assay [5] concerns MMP-2/9 (gelatinase) activity in bone-marrow derived macrophages. The experiment in a line: Macrophage gelatinase (MMP-2/9) activity. It counts as cell-based, mouse. The note with it: peptide 50 μM. How it is done:
as §1

The test system of assay [6] is CD4+ cells from C57Bl6 mice. The experiment in a line: CD4+ T cell activation, early activation marker CD69 by flow cytometry. It counts as cell-based, mouse. As to conditions: 18 hours culture. On the procedure: Alternatively, the T-cell proliferation assay may comprise comparing expression levels of the early activation marker CD69 in T-cells cultured either in the presence or in the absence of the compound to be tested. This assay may for example be performed as follows: • providing purified CD4+ cells (e.g. purified from C57B16 mice); • stimulating said CD4+ cells by addition of anti-CD3 purified antibodies and bone marrow derived dendritic cells; • culturing the cells for about 18 hours; and • analyzing said cells for the expression of the early activation marker CD69, e.g. by flow cytometry; and • comparing CD69 expression in the presence of the compound to be tested.
The immunosuppressive properties of PepReg (10aa) vs the 23 aa parent peptide were evaluated in vitro. Negatively purified CD4+ cells from C57Bl6 mice were stimulated by soluble anti-CD3 purified antibodies and bone marrow derived dendritic cells. Cells from triplicate wells were analyzed for the expression of the early activation marker CD69 after 18 hours culture in complete RPMI medium supplemented with 10% fetal calf serum.

Assay [7] has as its system C57BL/6J mice immunized with MOG35-55 peptide. The experiment in a line: Experimental Autoimmune Encephalomyelitis (EAE) model. As to conditions: single peptide shot. The format is in vivo, mouse. How it is done: Twelve-week old female C57BL/6J mice were immunized with 300 μg of MOG35-55 peptide emulsified in Complete Freund's Adjuvant 1:1 by volume containing 800 μg of nonviable desiccated Mycobacterium tuberculosis H37RA. A final volume of 200 μl of the emulsion was injected subcutaneously at 4 sites (50 μl/site) over the flanks. In addition, 300 ng of Pertussis toxin was injected intravenously (retro-orbital plexus) on the same day and 2 days later. Clinical signs of EAE ware assessed daily by the following scoring system: 0, no signs; 1, hindlimb weakness; 2, hindlimb weakness and tail paralysis; 3, hindlimb and tail paralysis; 4, hindlimb and tail paralysis and forelimb weakness; 5, moribund state; and 6, death. The peak (waxing phase) occured around day 21. In this C57BL/6J mouse model, there was no waning phase as assessed in our laboratory up to day 41.
The experiment was carried out with ten mice per group. The mice of each group were treating with either of: • PBS; • PepReg (SEQ ID NO: 3); or • PepScra (SEQ ID NO: 14).
The dosing was of 50 μg of peptide per mice and per day (i.e. about 2 mg/Kg per day). The peptide was administered by a subcutaneous injection.

Consider `CSCC[C@H](NC(=O)[C@H](CO)NC(=O)[C@@H](N)CO)C(=O)N[C@@H](CCCNC(=N)N)C(=O)N[C@H](C(=O)N[C@@H](CO)C(=O)N1CCC[C@H]1C(=O)N[C@@H](CCCNC(=N)N)C(=O)N[C@@H](CO)C(=O)N[C@@H](CO)C(=O)N[C@H](C(=O)N[C@@H](CC(C)C)C(=O)N[C@@H](C)C(=O)N[C@H](C(=O)N[C@@H](CCCNC(=N)N)C(=O)N[C@H](C(=O)N[C@@H](Cc1ccccc1)C(=O)N[C@@H](CC(C)C)C(=O)N[C@@H](C)C(=O)N1CCC[C@H]1C(=O)N[C@@H](Cc1c[nH]c2ccccc12)C(=O)N[C@@H](CCCCN)C(=O)N[C@@H](CCCCN)C(=O)O)C(C)C)C(C)C)[C@@H](C)O)[C@@H](C)O` [peptide 551-574] (H-SSMRTSPRSSTLAVRVFLAPWKK-OH), for which, in assay [1] (25° C., analyte 12.5-100 μM, read-out: association constant (kon)), the kon turned out to be 134 ± 120 M⁻¹ s⁻¹. Also, the koff in assay [1] (25° C., read-out: dissociation constant (koff)) stood at 0.00158 s⁻¹. The Kd in assay [1] (read-out: affinity at equilibrium) was 17.8 ± 9.7 µM. Further, the “signal on a channel coated with the scramble peptide” value in assay [2] is “negligible signal”. Moreover, the “proliferation of CD31-/- spleen cells” value was “effect at 100 μM dose also on cells lacking CD31” in assay [3] (highest dose, 100 μM); “only the highest dose of the peptide affect proliferation” in assay [3] (highest dose, 100 μM, listed as mouse CD31 peptide 551-574); “no effect” in assay [3] (low dose of the peptide). Also, the “CD8+ T cell-dependent cytolysis of murine aortic smooth muscle cells” value in assay [4] was “inhibited”. For the same molecule, in assay [5], the “activity of matrix degrading enzymes (MMP-2/9) in bone-marrow derived macrophages” value is listed as “inhibited”. The “dose at which suppression of CD69 expression was observed” value in assay [6] came out at 100 µg/mL. In addition, in assay [7], the “duration of protective effect in EAE” value is reported as “up to 5 days”.
